Data taken from US9932314B2, “Pyrazole compounds and their use as T-type calcium channel blockers” (IDORSIA PHARMACEUTICALS LTD, priority 2015, dated 2018).

Biological target: T1, voltage-dependent T-type calcium channel subunit alpha-1G (Cav3.2) (Homo sapiens, UniProt O95180)
T1 construct: expressed in transfected cells; host or cells: HEK293
Assay: FLIPR calcium flux assay, HEK293 cells recombinantly expressing Cav3.2
Assay type: cell-based
Settings: Cav3.2-channel, Fluo-4-AM, 3 min incubation, stimulation with 10 mM CaCl2
Summary of the method: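 Calcium influx was triggered by adding CaCl2 to 10 mM final, 3 min after compounds in tetraethylammonium-based buffer, pH 7.2, reached Fluo-4-AM-loaded recombinant HEK293 cells. The integrated kinetic fluorescence signal per concentration gave concentration-response curves by non-linear sigmoidal regression.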

T1 sequence (O95180 whole entry): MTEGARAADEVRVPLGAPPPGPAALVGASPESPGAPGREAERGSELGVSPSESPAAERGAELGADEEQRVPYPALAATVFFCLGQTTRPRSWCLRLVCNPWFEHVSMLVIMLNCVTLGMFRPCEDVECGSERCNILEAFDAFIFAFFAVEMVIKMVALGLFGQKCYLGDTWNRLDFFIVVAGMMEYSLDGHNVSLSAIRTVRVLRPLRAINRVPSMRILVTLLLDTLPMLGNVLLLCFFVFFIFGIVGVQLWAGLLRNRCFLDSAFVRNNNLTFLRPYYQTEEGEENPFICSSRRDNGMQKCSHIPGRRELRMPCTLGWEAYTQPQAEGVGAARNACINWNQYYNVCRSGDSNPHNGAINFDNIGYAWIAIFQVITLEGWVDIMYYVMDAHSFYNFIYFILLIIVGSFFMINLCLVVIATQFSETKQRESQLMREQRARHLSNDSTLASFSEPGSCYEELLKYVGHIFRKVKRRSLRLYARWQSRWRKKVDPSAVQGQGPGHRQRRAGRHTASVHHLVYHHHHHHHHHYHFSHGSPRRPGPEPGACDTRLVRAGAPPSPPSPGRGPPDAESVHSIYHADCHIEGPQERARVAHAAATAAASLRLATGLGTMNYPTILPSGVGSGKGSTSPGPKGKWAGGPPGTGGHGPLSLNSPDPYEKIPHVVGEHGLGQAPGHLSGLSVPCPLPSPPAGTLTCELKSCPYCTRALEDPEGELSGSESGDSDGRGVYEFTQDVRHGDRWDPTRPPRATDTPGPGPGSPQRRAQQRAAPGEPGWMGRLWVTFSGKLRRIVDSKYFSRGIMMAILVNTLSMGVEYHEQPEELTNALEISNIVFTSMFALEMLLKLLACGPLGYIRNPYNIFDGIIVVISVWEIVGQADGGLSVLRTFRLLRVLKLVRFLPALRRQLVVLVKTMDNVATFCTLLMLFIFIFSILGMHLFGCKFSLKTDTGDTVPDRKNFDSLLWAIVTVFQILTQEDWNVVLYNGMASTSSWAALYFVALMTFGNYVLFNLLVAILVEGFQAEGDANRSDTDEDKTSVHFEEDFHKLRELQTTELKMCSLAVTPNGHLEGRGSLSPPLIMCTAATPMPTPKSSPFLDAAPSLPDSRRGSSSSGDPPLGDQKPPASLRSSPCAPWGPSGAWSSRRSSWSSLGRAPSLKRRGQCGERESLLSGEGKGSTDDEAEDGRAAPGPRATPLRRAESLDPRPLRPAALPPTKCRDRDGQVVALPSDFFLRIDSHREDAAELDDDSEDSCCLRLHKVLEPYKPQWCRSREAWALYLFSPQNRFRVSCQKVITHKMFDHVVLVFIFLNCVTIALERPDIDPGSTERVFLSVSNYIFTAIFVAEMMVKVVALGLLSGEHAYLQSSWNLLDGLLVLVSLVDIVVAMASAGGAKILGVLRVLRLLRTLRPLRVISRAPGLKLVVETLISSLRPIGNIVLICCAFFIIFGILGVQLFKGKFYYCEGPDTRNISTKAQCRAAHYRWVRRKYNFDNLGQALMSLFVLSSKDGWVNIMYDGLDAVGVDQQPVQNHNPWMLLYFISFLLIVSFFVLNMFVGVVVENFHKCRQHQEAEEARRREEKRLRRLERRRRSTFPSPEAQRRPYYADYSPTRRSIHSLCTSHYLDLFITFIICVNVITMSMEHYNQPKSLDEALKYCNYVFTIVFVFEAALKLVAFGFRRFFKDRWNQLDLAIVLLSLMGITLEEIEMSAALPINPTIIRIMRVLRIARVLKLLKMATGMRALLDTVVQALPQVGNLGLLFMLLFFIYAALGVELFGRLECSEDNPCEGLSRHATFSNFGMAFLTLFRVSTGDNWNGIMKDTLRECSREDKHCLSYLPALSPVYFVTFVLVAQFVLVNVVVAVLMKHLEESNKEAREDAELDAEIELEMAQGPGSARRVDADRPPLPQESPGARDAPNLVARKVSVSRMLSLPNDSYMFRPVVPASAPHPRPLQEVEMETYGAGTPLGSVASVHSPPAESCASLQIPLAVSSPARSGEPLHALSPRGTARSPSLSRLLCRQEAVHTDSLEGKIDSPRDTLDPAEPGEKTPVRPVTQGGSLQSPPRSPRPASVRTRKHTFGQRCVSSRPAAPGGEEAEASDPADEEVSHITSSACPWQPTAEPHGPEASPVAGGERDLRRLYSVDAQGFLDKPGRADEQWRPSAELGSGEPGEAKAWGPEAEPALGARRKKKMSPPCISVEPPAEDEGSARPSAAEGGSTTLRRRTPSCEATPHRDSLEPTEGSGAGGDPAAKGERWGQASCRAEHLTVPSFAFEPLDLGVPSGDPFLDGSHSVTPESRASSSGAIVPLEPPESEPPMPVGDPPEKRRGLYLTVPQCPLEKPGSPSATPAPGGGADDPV

SMILES	IC50
N#Cc1cc(Cn2ccc(NC(=O)Cc3ccc(N4CCC(F)(F)C4)nc3)n2)ccc1F [Example 306, N-[1-(3-Cyano-4-fluoro-benzyl)-1H-pyrazol-3-yl]-2-[6-(3,3-difluoro-pyrrolidin-1-yl)-pyridin-3-yl]-acetamide]	17 nM
N#Cc1cc(Cn2ccc(NC(=O)Cc3ccc(N4CCCC4)nc3)n2)ccc1F [Example 307, N-[1-(3-Cyano-4-fluoro-benzyl)-1H-pyrazol-3-yl]-2-(6-pyrrolidin-1-yl-pyridin-3-yl)-acetamide]	42 nM
Cn1ncc2ccc(CC(=O)Nc3ccn(Cc4ccc(F)c(C#N)c4)n3)cc21 [Example 308, N-[1-(3-Cyano-4-fluoro-benzyl)-1H-pyrazol-3-yl]-2-(1-methyl-1H-indazol-6-yl)-acetamide]	263 nM
Cn1ccc2ccc(CC(=O)Nc3ccn(Cc4ccc(F)c(C#N)c4)n3)cc21 [Example 309, N-[1-(3-Cyano-4-fluoro-benzyl)-1H-pyrazol-3-yl]-2-(1-methyl-1H-indol-6-yl)-acetamide]	27 nM
Cn1ccc2cc(CC(=O)Nc3ccn(Cc4ccc(F)c(C#N)c4)n3)ccc21 [Example 310, N-[1-(3-Cyano-4-fluoro-benzyl)-1H-pyrazol-3-yl]-2-(1-methyl-1H-indol-5-yl)-acetamide]	13 nM
CC1(COc2ccc(CC(=O)Nc3ccn(Cc4ccc(F)c(C#N)c4)n3)cc2)CC(F)(F)C1 [Example 311, N-[1-(3-Cyano-4-fluoro-benzyl)-1H-pyrazol-3-yl]-2-[4-(3,3-difluoro-1-methyl-cyclobutylmethoxy)-phenyl]-acetamide]	81 nM
N#Cc1cc(Cn2ccc(NC(=O)Cc3ccc(C4CC(F)(F)C4)cc3)n2)ccc1F [Example 312, N-[1-(3-Cyano-4-fluoro-benzyl)-1H-pyrazol-3-yl]-2-[4-(3,3-difluoro-cyclobutyl)-phenyl]-acetamide]	10 nM
N#Cc1cc(Cn2ccc(NC(=O)Cc3ccc(OCC4CC(F)(F)C4)cc3)n2)ccc1F [Example 313, N-[1-(3-Cyano-4-fluoro-benzyl)-1H-pyrazol-3-yl]-2-[4-(3,3-difluoro-cyclobutylmethoxy)-phenyl]-acetamide]	45 nM
N#Cc1cc(Cn2ccc(NC(=O)Cc3ccc(C4(C(F)(F)F)CC4)cc3)n2)ccc1F [Example 314, N-[1-(3-Cyano-4-fluoro-benzyl)-1H-pyrazol-3-yl]-2-[4-(1-trifluoromethyl-cyclopropyl)-phenyl]-acetamide]	32 nM
O=C(Cc1ccc(C2(F)COC2)nc1)Nc1ccn(Cc2ccc(F)c(F)c2)n1 [Example 315, N-[1-(3,4-Difluoro-benzyl)-1H-pyrazol-3-yl]-2-[6-(3-fluoro-oxetan-3-yl)-pyridin-3-yl]-acetamide]	240 nM
CC1(c2ccc(CC(=O)Nc3ccn(Cc4ccc(F)c(C#N)c4)n3)cc2)COC1 [Example 316, N-[1-(3-Cyano-4-fluoro-benzyl)-1H-pyrazol-3-yl]-2-[4-(3-methyl-oxetan-3-yl)-phenyl]-acetamide]	36 nM
CC1(c2ccc(CC(=O)Nc3ccn(Cc4ccc(C#N)cc4)n3)cc2)COC1 [Example 317, N-[1-(4-Cyano-benzyl)-1H-pyrazol-3-yl]-2-[4-(3-methyl-oxetan-3-yl)-phenyl]-acetamide]	56 nM
CC1(c2ccc(CC(=O)Nc3ccn(Cc4ccc(C#N)cn4)n3)cc2)COC1 [Example 318, N-[1-(5-Cyano-pyridin-2-ylmethyl)-1H-pyrazol-3-yl]-2-[4-(3-methyl-oxetan-3-yl)-phenyl]-acetamide]	378 nM
Cc1cn(C)c2ncc(CC(=O)Nc3ccn(Cc4ccc(F)c(C#N)c4)n3)cc12 [Example 321, N-[1-(3-Cyano-4-fluoro-benzyl)-1H-pyrazol-3-yl]-2-(1,3-dimethyl-1H-pyrrolo[2,3-b]pyridin-5-yl)-acetamide]	91 nM
Cc1cn(C)c2ncc(CC(=O)Nc3ccn(Cc4ccc(C#N)cn4)n3)cc12 [Example 322, N-[1-(5-Cyano-pyridin-2-ylmethyl)-1H-pyrazol-3-yl]-2-(1,3-dimethyl-1H-pyrrolo[2,3-b]pyridin-5-yl)-acetamide]	856 nM
Cn1cc(C2CCC2)c2cc(CC(=O)Nc3ccn(Cc4ccc(C#N)cn4)n3)ccc21 [Example 323, N-[1-(5-Cyano-pyridin-2-ylmethyl)-1H-pyrazol-3-yl]-2-(3-cyclobutyl-1-methyl-1H-indol-5-yl)-acetamide]	36 nM
CC(C)c1cn(C)c2ccc(CC(=O)Nc3ccn(Cc4ccc(C#N)cn4)n3)cc12 [Example 324, N-[1-(5-Cyano-pyridin-2-ylmethyl)-1H-pyrazol-3-yl]-2-(3-isopropyl-1-methyl-1H-indol-5-yl)-acetamide]	31 nM
Cn1cc(C#N)c2cc(CC(=O)Nc3ccn(Cc4ccc(C#N)cn4)n3)ccc21 [Example 325, 2-(3-Cyano-1-methyl-1H-indol-5-yl)-N-[1-(5-cyano-pyridin-2-ylmethyl)-1H-pyrazol-3-yl]-acetamide]	893 nM
Cn1cc(C(F)(F)F)c2cc(CC(=O)Nc3ccn(Cc4ccc(C#N)cn4)n3)ccc21 [Example 326, N-[1-(5-Cyano-pyridin-2-ylmethyl)-1H-pyrazol-3-yl]-2-(1-methyl-3-trifluoromethyl-1H-indol-5-yl)-acetamide]	33 nM
Cn1cc(C2CCC2)c2cc(CC(=O)Nc3ccn(Cc4ccc(F)c(C#N)c4)n3)ccc21 [Example 327, N-[1-(3-Cyano-4-fluoro-benzyl)-1H-pyrazol-3-yl]-2-(3-cyclobutyl-1-methyl-1H-indol-5-yl)-acetamide]	37 nM
CC(C)c1cn(C)c2ccc(CC(=O)Nc3ccn(Cc4ccc(F)c(C#N)c4)n3)cc12 [Example 328, N-[1-(3-Cyano-4-fluoro-benzyl)-1H-pyrazol-3-yl]-2-(3-isopropyl-1-methyl-1H-indol-5-yl)-acetamide]	33 nM
Cn1cc(C#N)c2cc(CC(=O)Nc3ccn(Cc4ccc(F)c(C#N)c4)n3)ccc21 [Example 329, N-[1-(3-Cyano-4-fluoro-benzyl)-1H-pyrazol-3-yl]-2-(3-cyano-1-methyl-1H-indol-5-yl)-acetamide]	80 nM
Cc1cn(C)c2cc(CC(=O)Nc3ccn(Cc4ccc(F)c(C#N)c4)n3)ccc12 [Example 330, N-[1-(3-Cyano-4-fluoro-benzyl)-1H-pyrazol-3-yl]-2-(1,3-dimethyl-1H-indol-6-yl)-acetamide]	4.8 nM
Cc1cn(C)c2cc(CC(=O)Nc3ccn(Cc4ccc(C#N)cn4)n3)ccc12 [Example 331, N-[1-(5-Cyano-pyridin-2-ylmethyl)-1H-pyrazol-3-yl]-2-(1,3-dimethyl-1H-indol-6-yl)-acetamide]	9.6 nM

Continued, values first:

IC50	SMILES
600 nM	N#Cc1cc(Cn2ccc(NC(=O)Cc3ccc(F)cc3OCC(F)(F)F)n2)ccc1F [Example 332, N-[1-(3-Cyano-4-fluoro-benzyl)-1H-pyrazol-3-yl]-2-[4-fluoro-2-(2,2,2-trifluoro-ethoxy)-phenyl]-acetamide]
2790 nM	N#Cc1ccc(Cn2ccc(NC(=O)Cc3ccc(F)cc3OCC(F)(F)F)n2)nc1 [Example 333, N-[1-(5-Cyano-pyridin-2-ylmethyl)-1H-pyrazol-3-yl]-2-[4-fluoro-2-(2,2,2-trifluoro-ethoxy)-phenyl]-acetamide]
21 nM	N#Cc1cc(Cn2ccc(NC(=O)Cc3ccc(S(F)(F)(F)(F)F)cc3)n2)ccc1F [Example 334, N-(1-(3-cyano-4-fluorobenzyl)-1H-pyrazol-3-yl)-2-(4-(pentafluoro-λ^6-sulfanyl)phenyl)acetamide]
20 nM	CC(C)(C#N)c1ccc(CC(=O)Nc2ccn(Cc3ccc(F)c(C#N)c3)n2)cc1 [Example 335, 2-[4-(Cyano-dimethyl-methyl)-phenyl]-N-[1-(3-cyano-4-fluoro-benzyl)-1H-pyrazol-3-yl]-acetamide]
34 nM	N#Cc1ccc(Cn2ccc(NC(=O)Cc3ccc(S(F)(F)(F)(F)F)cc3)n2)nc1 [Example 336, N-(1-((5-cyanopyridin-2-yl)methyl)-1H-pyrazo1-3-yl)-2-(4-(pentafluoro-λ^6-sulfanyl)phenyl)acetamide]
168 nM	CC(C)(C#N)c1ccc(CC(=O)Nc2ccn(Cc3ccc(C#N)cn3)n2)cc1 [Example 337, 2-[4-(Cyano-dimethyl-methyl)-phenyl]-N-[1-(5-cyano-pyridin-2-ylmethyl)-1H-pyrazol-3-yl]-acetamide]
61 nM	N#Cc1ccc(Cn2ccc(NC(=O)Cc3ccc(C(F)(F)F)cc3)n2)nc1 [Example 338, N-[1-(5-Cyano-pyridin-2-ylmethyl)-1H-pyrazol-3-yl]-2-(4-trifluoromethyl-phenyl)-acetamide]
8.5 nM	N#Cc1cc(Cn2ccc(NC(=O)Cc3cnc(N4CCCC4)c(F)c3)n2)ccc1F [Example 340, N-[1-(3-Cyano-4-fluoro-benzyl)-1H-pyrazol-3-yl]-2-(5-fluoro-6-pyrrolidin-1-yl-pyridin-3-yl)-acetamide]
64 nM	N#Cc1ccc(Cn2ccc(NC(=O)Cc3cnc(N4CCCC4)c(F)c3)n2)nc1 [Example 341, N-[1-(5-Cyano-pyridin-2-ylmethyl)-1H-pyrazol-3-yl]-2-(5-fluoro-6-pyrrolidin-1-yl-pyridin-3-yl)-acetamide]
40 nM	N#Cc1cc(Cn2ccc(NC(=O)Cc3ccc(C(F)(F)F)cc3)n2)ccc1F [Example 342, N-[1-(3-Cyano-4-fluoro-benzyl)-1H-pyrazol-3-yl]-2-(4-trifluoromethyl-phenyl)-acetamide]
4.5 nM	Cc1cc(CC(=O)Nc2ccn(Cc3ccc(F)c(C#N)c3)n2)ccc1OCC(F)(F)F [Example 343, N-[1-(3-Cyano-4-fluoro-benzyl)-1H-pyrazol-3-yl]-2-[3-methyl-4-(2,2,2-trifluoro-ethoxy)-phenyl]-acetamide]
52 nM	Cn1ncc2cc(CC(=O)Nc3ccn(Cc4cc(F)c(C#N)c(F)c4)n3)ccc21 [Example 344, N-[1-(4-Cyano-3,5-difluoro-benzyl)-1H-pyrazol-3-yl]-2-(1-methyl-1H-indazol-5-yl)-acetamide]
